Test systems include DU-145 prostate; MCF7 breast; 786-0 renal; SF-268 CNS; HT29 colon; RPMI-8226 leukemia; A549 NSCLC; KM12 colon; SK-MEL-5 melanoma.
What all share (experiment): NCI anticancer screen, dose series, 48 h

Drawing on PubChem BioAssay (NCI), this text covers GI50 and TGI for 6 molecules.

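Interpolation was linear, between the two tested concentrations surrounding the appropriate level; five concentrations were tested over 48 hours in 96-well plates. GI50 marks 50% less growth. At the TGI there is no net growth.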

Consider `CCN(CC)CCCC(C)N=c1cc(Nc2cc(=NC(C)CCCN(CC)CC)c3cc(OC)ccc3o2)oc2ccc(OC)cc12` (stereo unspecified), for which the GI50 with DU-145 prostate is 1170 nM; in the experiment on MCF7 breast it was 1080 nM; in the experiment with 786-0 renal it was 2260 nM; in the experiment with SF-268 CNS, 2150 nM; in the experiment with HT29 colon, 588 nM; with RPMI-8226 leukemia it was 1240 nM. Besides, the GI50 with A549 NSCLC is 849 nM; with KM12 colon, 1620 nM; with SK-MEL-5 melanoma it was 731 nM. The TGI in the experiment with DU-145 prostate is 3190 nM; in the experiment with MCF7 breast, 3680 nM; with 786-0 renal it was 8010 nM; in the experiment with SF-268 CNS, 8720 nM; with HT29 colon, 1970 nM; in the experiment with RPMI-8226 leukemia it was 3410 nM. Moreover, the TGI in the experiment with A549 NSCLC amounted to 1870 nM; with KM12 colon, 5630 nM; in the experiment with SK-MEL-5 melanoma it was 1390 nM.
On to `COc1cccc2c1c(C1=C(c3cn(C)c4ccccc34)C(=O)NC1=O)cn2C`, for which the GI50 in the experiment on DU-145 prostate, with MCF7 breast, in the experiment on 786-0 renal, in the experiment with SF-268 CNS, in the experiment with HT29 colon and with RPMI-8226 leukemia was more than 25000 nM each time. Also, the GI50 in the experiment on A549 NSCLC, in the experiment with KM12 colon and with SK-MEL-5 melanoma was more than 25000 nM each time. For the same molecule, the TGI with DU-145 prostate, in the experiment with MCF7 breast, with 786-0 renal, with SF-268 CNS, with HT29 colon and in the experiment with RPMI-8226 leukemia was more than 25000 nM in each case. For the same molecule, the TGI in the experiment with A549 NSCLC, in the experiment on KM12 colon and in the experiment on SK-MEL-5 melanoma was more than 25000 nM each time.
Turning to `O=C(NO)c1ccc(Cn2c(=O)n(-c3ccccc3F)c(=O)c3ccccc32)cc1`, the GI50 with DU-145 prostate is 2090 nM; in the experiment with MCF7 breast, 2210 nM; in the experiment with 786-0 renal it was 1820 nM; in the experiment with SF-268 CNS it was 1740 nM; in the experiment on HT29 colon it was 2020 nM; with RPMI-8226 leukemia it was 1190 nM. In addition, the GI50 in the experiment with A549 NSCLC was 2740 nM; with SK-MEL-5 melanoma, 1510 nM. The TGI in the experiment on DU-145 prostate is more than 100000 nM; in the experiment on MCF7 breast it was more than 100000 nM; in the experiment with 786-0 renal it was 3650 nM; with SF-268 CNS it was 4010 nM; with HT29 colon, 10500 nM; in the experiment on RPMI-8226 leukemia, 18900 nM. Also, the TGI came out at 7830 nM in the experiment with A549 NSCLC and 2960 nM in the experiment with SK-MEL-5 melanoma.
For the molecule `CCS(=O)(=O)Nc1cccc(Nc2c3cccc(C)c3nc3c(C)cccc23)c1OC`, the GI50 in the experiment on DU-145 prostate was 545 nM; in the experiment with MCF7 breast, 168 nM; in the experiment on 786-0 renal, 485 nM; with SF-268 CNS, 980 nM; in the experiment on HT29 colon, 1930 nM; in the experiment on RPMI-8226 leukemia, 573 nM. For the same molecule, the GI50 in the experiment with A549 NSCLC is 202 nM; in the experiment on KM12 colon it was 2260 nM; in the experiment with SK-MEL-5 melanoma it was 1100 nM. The TGI in the experiment with DU-145 prostate was 14100 nM; with MCF7 breast, 49500 nM; in the experiment with 786-0 renal it was 10400 nM; in the experiment with SF-268 CNS it was more than 56000 nM; in the experiment on HT29 colon, 10500 nM; with RPMI-8226 leukemia, 12500 nM. Besides, the TGI with A549 NSCLC was 4020 nM; with KM12 colon, more than 31200 nM; in the experiment on SK-MEL-5 melanoma, 8210 nM.
For `C=CN(C)S(C)(=O)=O`, the GI50 in the experiment on DU-145 prostate, in the experiment with MCF7 breast, with 786-0 renal, in the experiment with SF-268 CNS, in the experiment on HT29 colon and in the experiment with RPMI-8226 leukemia was more than 100000 nM throughout. For the same molecule, the GI50 in the experiment with A549 NSCLC, with KM12 colon and with SK-MEL-5 melanoma was more than 100000 nM throughout. Besides, the TGI in the experiment with DU-145 prostate, with MCF7 breast, with 786-0 renal, with SF-268 CNS, in the experiment on HT29 colon and in the experiment on RPMI-8226 leukemia was more than 100000 nM throughout. For the same molecule, the TGI with A549 NSCLC, with KM12 colon and with SK-MEL-5 melanoma was more than 100000 nM in each case.
On to `COc1cc(-c2nn(-c3cccc(NC(=O)c4ccc(N5CCOCC5)c(C(F)(F)F)c4)c3)cc2-c2ccncc2)ccc1Cl`, for which the GI50 in the experiment on DU-145 prostate is 379 nM; with MCF7 breast, 263 nM; in the experiment on 786-0 renal it was 561 nM; in the experiment on SF-268 CNS, 559 nM; in the experiment with HT29 colon, 466 nM; in the experiment on RPMI-8226 leukemia it was 269 nM. Further, the results for the GI50 in the experiment on A549 NSCLC, in the experiment with KM12 colon and with SK-MEL-5 melanoma were 287 nM, 213 nM and 126 nM, respectively. The TGI in the experiment with DU-145 prostate was more than 39300 nM; in the experiment with MCF7 breast it was more than 100000 nM; in the experiment with 786-0 renal, 2810 nM; in the experiment on SF-268 CNS it was more than 48100 nM; in the experiment on HT29 colon, 2190 nM; with RPMI-8226 leukemia, more than 100000 nM. Also, the TGI in the experiment with A549 NSCLC is more than 36900 nM; in the experiment on KM12 colon it was 8780 nM; with SK-MEL-5 melanoma it was 966 nM.
